Reference: patent US20240197828A1, “Chimeric molecule to treat sepsis and other inflammatory conditions” (THE FEINSTEIN INSTITUTES FOR MEDICAL RESEARCH, priority 2022, published 2024)
Entries after “also recorded” stand apart in the source; their conditions may differ. Residues, ends and D or L forms follow the SMILES beside them.

System: RAW264.7 macrophages
Test: Intracellular uptake of FITC-rmCIRP by macrophages (flow cytometry, confocal microscopy)
Assay type: cell-based, mouse
Conditions: for intracellular FITC-rmCIRP uptake (flow cytometry): RAW264.7, FITC-rmCIRP 1 μg/mL co-incubated with test substance (peptide 10 μg/mL), 1 hour, vs FITC-rmCIRP alone
Method: FIG. 3. Effects of MOP peptides MOP-3, MOP-8 and MOP-14 on eCIRP. Flow cytometry experiment whereby RAW264.7 macrophages were treated for 1 hour according to respective group: PBS (volume-equivalent), FITC-rmCIRP (1 μg/mL), or a mixture of FITC-rmCIRP (1 μg/mL) with each respective peptide (10 μg/mL) after co-incubating for 30 minutes. Intracellular FITC-rmCIRP was analyzed by flow cytometry. Median fluorescence intensity (MFI) reported as percentage relative to PBS-treated RAW264.7 cells. Data from two independent experiments are expressed as mean±SEM and compared by one-way ANOVA and SNK test. *p<0.05 vs. PBS, #p<0.05 vs. eCIRP.
Computational modeling was used to determine the likely domain of MFG-E8's binding to eCIRP. The known amino acid (AA) sequence of this domain was used to develop and test potential therapeutic peptides. An MFG-E8 derived oligopeptide, MOP3, was developed based on 15 AA from MFG-E8 discoidin 2 domain (mimicking MFG-E8's C-terminal) and tagged with the 3 AA, RGD, (mimicking MFG-E8's binding capacity for the integrin receptor at the N-terminal). Binding of MOP3 to CIRP was quantified using Surface Plasmon Resonance (SPR) analysis. Macrophages (RAW264.7 cells) were treated with FITC-recombinant mouse (rm)-CIRP or co-incubated MOP3 and FITC-rmCIRP with and without a. Br-integrin Ab. After 1 h, cells were fixed and analyzed for intracellular FITC-rmCIRP by flow cytometry. Macrophages were stimulated with rmCIRP or co-incubated mixture of MOP3 and rmCIRP. After 4 h, cell culture supernatants were analyzed for inflammatory cytokine, TNFα.
Mouse macrophage cell line, RAW264.7 cells were obtained from American Type Culture Collection (ATCC) and cultured in DMEM media with 10% FBS, 1% penicillin and streptomycin, and 1% glutamine. Cells were kept in 37° C. incubator under humidified conditions containing 5% CO2.
rmCIRP was labeled using a FITC Conjugation Kit (Abcam, ab188285), and rmMFG-E8 was labeled using Alexa Fluor Conjugation Kit (Abcam, ab269821), both according to respective manufacturer's instructions.
In order to visualize cellular uptake, we initially utilized TRITC-BSA as an internal probe, as BSA is taken up into cells primarily by endocytosis and retained intracellularly after fixation (27, 28). For further visualization of intracellular localization, we utilized LAMP1 primary antibody (as it is distributed among endolysosomal organelles and serves as a marker for lysosomal compartments) (29), and utilized lysotracker in live cell experiments (as it allows for imaging of dynamics of lysosome vesicle movements) (30). RAW264.7 cells were treated in various conditions with rmCIRP, rmMFG-E8, and inhibitory antibody against auß3-integrin (Bioss antibodies, bs-1310R) for 4 hours. Cells were fixed with 4% paraformaldehyde (PFA), washed with 1×PBS, permeabilized using 0.3% Triton x100, and blocked using 5% BSA 100 mM Glycine in PBS prior to primary antibody treatment. After incubation with secondary antibodies, cells were washed and mounted with ProLong Gold antifade reagent (Invitrogen). For live cell imaging, cells remained in treatment conditions and were imaged under CO2. Staining procedures were performed according to the manufacturers' instructions utilizing respective fluorescent dyes and probes. For all imaging, confocal microscopy images were obtained using a Zeiss LSM880 confocal microscope equipped with a 63× objective. Images were quantified and analyzed using Image J, FIJI.(31) Flow cytometry.
To detect changes in internalized eCIRP in the presence of MFG-E8, RAW264.7 cells were seeded in 12-well plates (approximately 3×10^5 cells/well) and were treated with FITC-eCIRP. Treatment groups consisted of FITC-eCIRP, FITC-eCIRP with MFG-E8, FITC-eCIRP with MFG-E8 and αvβ3-integrin antibody (0.5 μg/mL), or FITC-eCIRP with MFG-E8 and IgG isotype (0.5 μg/mL). Similar experiments were conducted with MOP3 instead of MFG-E8 in parallel groups. […]

CC(C)C[C@H](NC(=O)[C@H](CC(N)=O)NC(=O)[C@H](Cc1c[nH]c2ccccc12)NC(=O)[C@@H](NC(=O)[C@H](CCCCN)NC(=O)[C@H](Cc1ccc(O)cc1)NC(=O)[C@H](CO)NC(=O)[C@H](CO)NC(=O)[C@H](CO)NC(=O)[C@H](CC(=O)O)NC(=O)CNC(=O)[C@@H](N)CCCNC(=N)N)[C@@H](C)O)C(=O)N[C@@H](CCCNC(=N)N)C(=O)N[C@@H](C)C(=O)N[C@@H](Cc1ccccc1)C(=O)NCC(=O)N[C@@H](Cc1c[nH]c2ccccc12)C(=O)N[C@@H](Cc1ccc(O)cc1)C(=O)O [MOP3, RGDSSSYKTWNLRAFGWY] (H-RGDSSSYKTWNLRAFGWY-OH; N-terminus and C-terminus assumed)
intracellular FITC-rmCIRP uptake (flow cytometry): increased intracellular fluorescence; also recorded: significantly increased intracellular rmCIRP uptake | intracellular FITC-rmCIRP uptake (flow cytometry) (listed as peptide-3): could increase intracellular uptake of FITC-eCIRP | intracellular FITC-rmCIRP uptake with αvβ3-integrin blocking antibody (flow cytometry) (RAW264.7, αvβ3-integrin antibody 0.5 μg/mL): prevented
